Reference: patent US7323118B2, “Composition of hypochlorous acid and its applications” (Aquilabs S.A., priority 2001, dated 2008)

Legend:
Test in all cases: Cultures and tests of inhibition (culture agar, Petri box)
Assay type in all cases: cell-based
Details in all cases: added to the culture agar; inhibition haloes in the Petri box
E. Coli = tested on: E. Coli
pseudomona = tested on: pseudomona
staphylococcus aureus = tested on: staphylococcus aureus

Measured: inhibition of growth

OCl [Hypochlorous acid]
full inhibition: E. Coli | pseudomona | staphylococcus aureus
